Experimental data: US7045532B2 (Millennium Pharmaceuticals, Inc., priority 1999, dated 2006)
pKi: −log10 of the molar value. Read-outs that look alike come from different tables or passages of the source.

Molecular target: T1, ACE-2 (Homo sapiens, UniProt Q9BYF1)
T1 construct: a stop codon inserted after the serine immediately preceding the transmembrane domain; made in house; host or cells: CHO K1 cells (transient transfection, purified from conditioned medium)
Experiment: ACE-2 Competitive Substrate Assay (ACS Assay)
Assay type: biochemical

[1] = Ki class, compounds tested in 5% DMSO, 12 compound concentrations, Ki=Kiapp/(1+[S]/Km), read-out: Human ACE-2 Activity
[2] = Table 3, very good ACE-2 inhibiting compounds, species not given, read-out: ACE-2 Activity, Ki
[3] = Ki class per key, compounds tested in 5% DMSO, 12 compound concentrations, 25° C., Ki=Kiapp/(1+[S]/Km), read-out: Human ACE-2 Activity
[4] = Ki class, compounds tested in 5% DMSO, 12 concentrations, read-out: Human ACE-2 Activity

T1 sequence (Q9BYF1 18-740 limits assumed): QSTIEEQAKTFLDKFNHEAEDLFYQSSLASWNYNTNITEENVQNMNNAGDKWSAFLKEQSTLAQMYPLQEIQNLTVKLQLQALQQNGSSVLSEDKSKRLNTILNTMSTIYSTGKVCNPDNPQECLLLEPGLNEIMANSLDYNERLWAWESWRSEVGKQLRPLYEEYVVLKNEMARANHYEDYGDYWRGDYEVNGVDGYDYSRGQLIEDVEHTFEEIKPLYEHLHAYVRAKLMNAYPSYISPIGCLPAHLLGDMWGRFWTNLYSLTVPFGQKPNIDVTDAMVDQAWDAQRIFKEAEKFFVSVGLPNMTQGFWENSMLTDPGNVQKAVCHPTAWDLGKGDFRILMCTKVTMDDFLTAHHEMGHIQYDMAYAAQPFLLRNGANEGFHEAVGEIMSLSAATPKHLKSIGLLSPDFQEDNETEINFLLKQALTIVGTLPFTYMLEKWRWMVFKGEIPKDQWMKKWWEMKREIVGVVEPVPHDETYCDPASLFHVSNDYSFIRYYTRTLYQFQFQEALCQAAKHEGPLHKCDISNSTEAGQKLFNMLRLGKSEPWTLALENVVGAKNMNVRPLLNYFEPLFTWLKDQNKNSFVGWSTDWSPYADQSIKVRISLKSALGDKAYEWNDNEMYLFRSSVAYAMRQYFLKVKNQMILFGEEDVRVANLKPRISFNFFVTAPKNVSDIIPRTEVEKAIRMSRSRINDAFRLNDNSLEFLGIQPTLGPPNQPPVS

SMILES | pKi [1] | pKi [2] | further results
CC(C)C[C@H](N[C@@H](Cc1cc(-c2ccccc2)on1)C(=O)O)C(=O)O [KL, 2-[1-Carboxy-2-(5-phenyl-isoxazol-3-yl)-ethylamino]-4-methyl-pentanoic acid] | 6.30 to 7.00 |  | 
CC(C)CC(N[C@@H](Cc1cn(Cc2cccc(F)c2F)cn1)C(=O)O)C(=O)O (stereo partly shown) [IW, 2-[1-Carboxy-2-[1-(2,3-difluoro-benzyl)-1H-imidazol-4-yl]-ethylamino]4-methyl-pentanoic acid] | < 6.30 |  | 
Cc1nc(C[C@H](NC(CC(C)C)C(=O)O)C(=O)O)cs1 (single isomer, unassigned) [GY, 2-[1-Carboxy-2-(2-methyl-thiazol-4-yl)-ethylamino]-4-methyl-pentanoic acid] | < 6.30 |  | 
COC(=O)[C@H](Cc1cncn1Cc1cc(Cl)cc(Cl)c1)N[C@H](CC(C)C)C(=O)OCc1ccccc1 [LA, 2-[2-[3-(3,5-Dichloro-benzyl)-3H-imidazol-4-yl]-1-methoxycarbonyl-ethylamino]-4-methyl-pentanoic acidbenzyl ester] | < 6.30 |  | 
COC(=O)[C@H](Cc1cncn1Cc1cc(Cl)cc(Cl)c1)N[C@@H](CC(C)C)C(=O)O [KX, (S,S) 2-{2-[3-(3,5-Dichloro-benzyl)-3H-imidazol-4-yl]-1-methoxycarbonyl-ethylamino}-4-methyl-pentanoic acid] | > 7.00 | > 7.30 | 
CC(C)C[C@H](N[C@@H](Cc1cncn1Cc1cc(Cl)cc(Cl)c1)C(=O)OC1CCCC1)C(=O)O [LQ, (S,S) 2-{1-Cyclopentyloxycarbonyl-2-[3-(3,5-dichloro-benzyl)-3H-imidazol-4-yl]-ethylamino}-4-methyl-pentanoic acid] | < 6.30 |  | 
CC(C)CC(N[C@@H](Cc1cncn1Cc1cccc(F)c1)C(=O)O)C(=O)O (single isomer, unassigned) [JR, 2-[1-Carboxy-2-[3-(3-fluoro-benzyl)-3H-imidazol-4-yl]-ethylamino]4-methyl-pentanoic acid] | 6.30 to 7.00 |  | 
CC(C)CC(N[C@@H](Cc1nc2ccccc2n1Cc1ccccc1)C(=O)O)C(=O)O (single isomer, unassigned) [GR, 2-[2-(1-Benzyl-1H-benzoimidazol-2-yl)-1-carboxy-ethylamino]-4-methyl-pentanoic acid] |  |  | pKi [4]: < 6.30
CC(C)C[C@H](N[C@@H](Cc1csc(-c2cccc(C(F)(F)F)c2)n1)C(=O)O)C(=O)O [KD, (S,S)-2-{1-Carboxy-2-[2-(3-trifluoromethyl-phenyl)-thiazol-4-yl-]-ethylamino}-4-methyl-pentanoic acid] | < 6.30 |  | 
CCCCc1ccc(Cn2cncc2C[C@H](NC(CC(C)C)C(=O)O)C(=O)O)cc1 (single isomer, unassigned) [HJ, 2-[2-[3-(4-Butyl-benzyl)-3H-imidazol-4-yl]-1-carboxy-ethylamino]-4-methyl-pentanoic acid] | < 6.30 |  | 
C[C@@H](N[C@@H](CCCN)C(=O)O)C(=O)O [M, 5-Amino-2-(1-carboxy-ethylamino)-pentanoicacid] |  |  | pKi [4]: < 6.30
CC(C)C[C@H](N[C@@H](Cc1cncn1Cc1cc(Cl)cc(Cl)c1)C(=O)OCc1ccccc1)C(=O)O (single isomer, unassigned) [LC, 2-(1-Benzyloxycarbonyl-2-[3-(3,5-dichloro-benzyl)-3H-imidazol-4-yl]-ethylamino]-4-methyl-pentanoic acid] | > 7.00 | > 7.30 | 
O=C(O)[C@@H]1CCC[C@H](C(=O)O)N1 [H, Pipendine-2,6-dicarboxylic acid] |  |  | pKi [4]: < 6.30
COC(=O)[C@H](Cc1cncn1Cc1cc(Cl)cc(Cl)c1)N[C@H](CC(C)C)C(=O)O [KY, 2-[2-[3-(3,5-Dichloro-benzyl)-3H-imidazol-4-yl]-1-methoxycarbonyl-ethylamino]-4-methyl-pentanoic acid] | 6.30 to 7.00 |  | 
CC(C)C[C@H](NC(=O)[C@@H](S)Cc1ccccc1)C(=O)O [KM, 2-(2-Mercapto-3-phenyl-propionylamino)-4-methyl-pentanoic acid] | < 6.30 |  | 
CC(C)C[C@H](N[C@@H](CCNC(=O)c1ccc2ccccc2c1)C(=O)O)C(=O)O [KE] | < 6.30 |  | 
CC(C)C[C@H](N[C@@H](Cc1ccc(C(=O)NCc2ccccc2)cc1)C(=O)O)C(=O)O [QG, 2-[2-(4-Benzylcarbamoyl-phenyl)-1-carboxy-ethylamino]-4-methyl-pentanoic acid] |  |  | pKi [3]: < 6.30
CC(C)CC(N[C@@H](Cc1csc(NCc2ccccc2)n1)C(=O)O)C(=O)O (single isomer, unassigned) [HM, 2-[2-(2-Benzylamino-thiazol-4-yl)-1-carboxy-ethylamino]-4-methyl-pentanoic acid] | < 6.30 |  | 
Cc1ccc(Cn2cncc2C[C@H](NC(CC(C)C)C(=O)O)C(=O)O)cc1C (single isomer, unassigned) [HL, 2-[1-Carboxy-2-[3-(3,4-dimethyl-benzyl)-3H-imidazol-4-yl]-ethylamino]4-methyl-pentanoic acid] | < 6.30 |  | 
CC(C)C[C@H](N[C@@H](Cc1ccc(OCc2csc3ccccc23)cc1)C(=O)O)C(=O)O [QX, 2-{2-[4-(Benzo[b]thiophen3-ylmethoxy)-phenyl]-1-carboxy-ethylamino]-4-methyl-pentanoic acid] |  |  | pKi [3]: > 7.00
CC(C)C[C@H](N[C@@H](Cc1ccc([N+](=O)O)cc1)C(=O)O)C(=O)O [RA, 2-[1-Carboxy-2-(4-nitro-phenyl)-ethylamino]-4-methyl-pentanoic acid] |  |  | pKi [3]: 6.30 to 7.00

The next lines start with results.

pKi [1] | pKi [2] | SMILES | further results
> 7.00 | > 7.30 | CC(C)C[C@H](N[C@@H](Cc1ccc(-c2cc(Cl)cc(Cl)c2)cc1)C(=O)O)C(=O)O [NG, (S,S)-2-[1-Carboxy-2-(3′,5′-dichloro-biphenyl-4-yl)-ethylamino]-4-methyl-pentanoic acid] | 
 | > 7.30 | CC(C)C[C@H](N[C@@H](Cc1cc(-c2ccc(Cl)cc2)on1)C(=O)O)C(=O)O [QU, 2-(1-Carboxy-2-[5-(4-chloro-phenyl)-isoxazol-3-yl]-ethylamino]-4-methyl-pentanoic acid] | pKi [3]: > 7.00
 | > 7.30 | CC(C)C[C@H](N[C@@H](Cc1ccc(C(=O)O)n1Cc1cc(Cl)cc(Cl)c1)C(=O)O)C(=O)O [QY, 5-[2-Carboxy-2-(1-carboxy-3-methyl-butylamino)-ethyl]-1-(3,5-dichloro-benzyl)-1H-pyrrole-2-carboxylic acid] | pKi [3]: > 7.00
> 7.00 | > 7.30 | CC(C)C[C@H](N[C@@H](Cc1cncn1Cc1ccc(I)cc1)C(=O)O)C(=O)O [NI, 2-[1-Carboxy-2-[3-(4-iodobenzyl)-3H-imidazol-4-yl]-ethylamino]-4-methyl-pentanoic acid] | 
6.30 to 7.00 |  | CC(C)C[C@H](N[C@@H](Cc1ccc(-c2cccc3ccccc23)o1)C(=O)O)C(=O)O [OK] | 
 | > 7.30 | C[C@H](N[C@@H](Cc1cncn1Cc1cc(Cl)cc(Cl)c1)C(=O)O)C(=O)O [PL, (S,S) 2-(1-Carboxy-ethylamino)-3-[3-(3,5-dichloro-benzyl)-3H-imidazol-4-yl]-propionic acid] | pKi [3]: > 7.00
< 6.30 |  | CC(C)C[C@H](N[C@@H](Cc1ccc(-c2ccc(Cl)cc2)o1)C(=O)O)C(=O)O [OL, (S,S)-2-{1-Carboxy-2-[5-(4-chloro-phenyl)-furan-2-yl]-ethylamino}-4-methyl-pentanoic acid] | 
 | > 7.30 | CC(C)C[C@H](N[C@@H](Cc1ccc(OCc2csc3ccc(Cl)cc23)cc1)C(=O)O)C(=O)O [QK, 2-[1-Carboxy-2-[4-(5-chloro-benzo[b]thiophen-3-ylmethoxy)-phenyl]-ethylamino]-4-methyl-pentanoic acid] | pKi [3]: > 7.00
 | 7.00 to 7.30 | CC(C)C[C@H](N[C@@H](Cc1cc(-c2ccc(Cl)c(Cl)c2)on1)C(=O)O)C(=O)O [QL, 2-[1-Carboxy-2-[5-(3,4-dichloro-phenyl)-isoxazol-3-yl]-ethylamino)-4-methylpentanoic acid] | pKi [3]: > 7.00
 | > 7.30 | CC(C)C[C@H](N[C@@H](Cc1ccc(NC(=O)c2cc(F)cc(F)c2)cc1)C(=O)O)C(=O)O [OX, (S,S) 2-{1-Carboxy-2-[4-(3,5-difluoro-benzoylamino)-phenyl]-ethylamino}-4-methyl-pentanoic acid] | pKi [3]: > 7.00
< 6.30 |  | CC(C)C[C@H](N[C@@H](Cc1ccn(-c2ccccc2)n1)C(=O)OC(C)(C)C)C(=O)O [OR] | 
 | 7.00 to 7.30 | CC(C)C[C@H](N[C@@H](Cc1ccc(Oc2ccc(F)cc2)cc1)C(=O)O)C(=O)O [QP, 2-[1-Carboxy-2-[4-(4-fluoro-phenoxy)-phenyl]-ethylamino]-4-methyl-pentanoic acid] | pKi [3]: > 7.00
< 6.30 |  | CC(C)C[C@H](N[C@@H](Cc1cccc(-c2cccc3ccccc23)c1)C(=O)O)C(=O)O [MX, (S,S)-2-[1-Carboxy-2-(3-naphthalen-1-yl-phenyl)-ethylamino]-4-methyl-pentanoic acid] | 
6.30 to 7.00 |  | COc1cccc(C(=O)NC[C@H](N[C@@H](CC(C)C)C(=O)O)C(=O)O)c1 [LZ, 2-[1-Carboxy-2-(3-methoxy-benzoylamino)-ethylamino]-4-methyl-pentanoic acid] | 
> 7.00 | 7.00 to 7.30 | CC(C)C[C@H](N[C@@H](Cn1ccn(Cc2cccc(F)c2)c1=O)C(=O)O)C(=O)O [OT, 2-{1-Carboxy-2-[3-(3-fluoro-benzyl)-2-oxo-2,3-dihydro-imidazol-1-yl]-ethylamino]-4-methyl-pentanoic acid] | 
6.30 to 7.00 | > 7.30 | Cc1ccc2nc(NC(=O)C[C@H](N[C@@H](CC(C)C)C(=O)O)C(=O)O)sc2c1 [NW, 2-[1-Carboxy-2-(6-methyl-benzothiazol-2-ylcarbamoyl)-ethylamino]-4-methyl-pentanoic acid] | 
< 6.30 |  | CC(C)C[C@H](N[C@@H](Cc1ccc(O)cc1)C(=O)O)C(=O)O [NX, 2-[1-Carboxy-2-(4-hydroxy-phenyl)-ethylamino]-4-methyl-pentanoic acid] | 
6.30 to 7.00 |  | CC(C)C[C@H](N[C@@H](Cn1ccn(Cc2ccccc2)c1=O)C(=O)O)C(=O)O [LS, 2-[2-(3-Benzyl-2-oxo-2,3-dihydro-imidazol-1-yl)-1-carboxy-ethylamino]-4-methyl-pentanoic acid] | 
